# Laboratory results: ChEMBL document CHEMBL1201862, “PubChem BioAssay data set” (2004)
#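 Five compound concentrations were applied to cells in 96-well plates for 48 hours; endpoints were derived by simple linear interpolation of the resulting dose-response curve. GI50: concentration for 50% inhibition of growth.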 Calls of active or inactive are those of the source. Rule as the data show it: active = GI50 up to about 1.1 µM and inactive = higher.
# Experiments:
# Assay in all cases: NCI tumour cell line growth inhibition, 48 h
# OVCAR-3 = test system: OVCAR-3
# Malme-3M = test system: Malme-3M
# MCF7 = test system: MCF7
# KM12 = test system: KM12
# SK-OV-3 = test system: SK-OV-3
# A549 = test system: A549
# CAKI-1 = test system: CAKI-1
# BT-549 = test system: BT-549
# NCI-H522 = test system: NCI-H522
# U-251 = test system: U-251
# TK-10 = test system: TK-10
# HT-29 = test system: HT-29
# COLO 205 = test system: COLO 205
# OVCAR-5 = test system: OVCAR-5
# MDA-MB-435 = test system: MDA-MB-435
# A498 = test system: A498
# SF-539 = test system: SF-539
# OVCAR-4 = test system: OVCAR-4
# K562 = test system: K562
Structure (SMILES),GI50 (OVCAR-3),GI50 (Malme-3M),GI50 (MCF7),GI50 (KM12),GI50 (SK-OV-3),GI50 (A549),GI50 (CAKI-1),GI50 (BT-549),GI50 (NCI-H522),GI50 (U-251),GI50 (TK-10),GI50 (HT-29),GI50 (COLO 205),GI50 (OVCAR-5),GI50 (MDA-MB-435),GI50 (A498),GI50 (SF-539),GI50 (OVCAR-4),GI50 (K562)
COc1cc2oc3c(c(=O)c2c(O)c1/C=C/C(C)C)CCC(C)(C)Oc1cc(O)ccc1-3,15.6 µM (inactive),20 µM (inactive),13.3 µM (inactive),7.41 µM (inactive),16.7 µM (inactive),12 µM (inactive),16.5 µM (inactive),17.1 µM (inactive),18.1 µM (inactive),20.5 µM (inactive),13.8 µM (inactive),7.13 µM (inactive),16.4 µM (inactive),16.6 µM (inactive),16.1 µM (inactive),19.1 µM (inactive),13.1 µM (inactive),14.3 µM (inactive),4.32 µM (inactive)
O=c1oc2ccc3ccccc3c2cc1-c1nc2ccccc2o1,15.3 µM (inactive),13.7 µM (inactive),1.26 µM (inactive),27.3 µM (inactive),25.6 µM (inactive),28.2 µM (inactive),17.1 µM (inactive),31.3 µM (inactive),21.3 µM (inactive),22.2 µM (inactive),> 52.1 µM (inactive),20.7 µM (inactive),53.5 µM (inactive),> 100 µM (inactive),23.2 µM (inactive),25.9 µM (inactive),15.8 µM (inactive),21 µM (inactive),58.3 µM (inactive)
CC[C@H](C)C(=O)O[C@H]1CCC=C2C=C[C@H](C)[C@H](CC[C@@H]3C[C@@H](O)CC(=O)O3)[C@H]21 [MEVASTATIN],30.4 µM (inactive),34.1 µM (inactive),20.3 µM (inactive),37 µM (inactive),44.3 µM (inactive),27.4 µM (inactive),3.37 µM (inactive),4.75 µM (inactive),2.85 µM (inactive),3.62 µM (inactive),36.6 µM (inactive),36.7 µM (inactive),12.9 µM (inactive),31.6 µM (inactive),24.1 µM (inactive),5.43 µM (inactive),7.35 µM (inactive),43.1 µM (inactive),30.1 µM (inactive)
O=C(CCCN1CCC2(CC1)C(=O)NC(=O)N2c1ccccc1)c1ccc(F)cc1,> 100 µM (inactive),> 100 µM (inactive),> 100 µM (inactive),> 100 µM (inactive),> 100 µM (inactive),> 100 µM (inactive),> 100 µM (inactive),> 100 µM (inactive),8.73 µM (inactive),> 100 µM (inactive),> 100 µM (inactive),66.2 µM (inactive),> 100 µM (inactive),> 100 µM (inactive),> 100 µM (inactive),> 100 µM (inactive),> 100 µM (inactive),> 100 µM (inactive),> 10 µM (inactive)
CCOC(=O)/C(C(=O)Nc1cccc(C(F)(F)F)c1)=C(/N)N1CCCC1,> 100 µM (inactive),> 100 µM (inactive),63 µM (inactive),> 100 µM (inactive),52.4 µM (inactive),> 100 µM (inactive),> 100 µM (inactive),> 100 µM (inactive),> 100 µM (inactive),76.9 µM (inactive),> 100 µM (inactive),> 100 µM (inactive),> 100 µM (inactive),> 100 µM (inactive),> 100 µM (inactive),41.6 µM (inactive),20.1 µM (inactive),> 100 µM (inactive),> 100 µM (inactive)
CCCCc1nc(C)oc1C(C)C,> 100 µM (inactive),> 100 µM (inactive),> 100 µM (inactive),> 100 µM (inactive),> 100 µM (inactive),> 100 µM (inactive),> 100 µM (inactive),> 100 µM (inactive),> 100 µM (inactive),> 100 µM (inactive),> 100 µM (inactive),> 100 µM (inactive),> 100 µM (inactive),> 100 µM (inactive),> 100 µM (inactive),> 100 µM (inactive),> 100 µM (inactive),> 100 µM (inactive),> 100 µM (inactive)
CC(C)C1(C)N=C(C(F)(F)F)c2cc(C(=O)C(F)(F)F)c3ccccc3c2N1 (stereo not given),3.08 µM (inactive),3 µM (inactive),4.03 µM (inactive),3.31 µM (inactive),15 µM (inactive),5.43 µM (inactive),3.34 µM (inactive),3.08 µM (inactive),2.3 µM (inactive),2.91 µM (inactive),4.51 µM (inactive),3.44 µM (inactive),4.14 µM (inactive),11.2 µM (inactive),3.21 µM (inactive),14.9 µM (inactive),6.5 µM (inactive),4.91 µM (inactive),3.96 µM (inactive)
c1ccc([C@@H]2N[C@@]3(CO[Si](c4ccccc4)(c4ccccc4)c4ccccc4)CC[C@H]4CN[C@@H]2[C@H]43)cc1,13.8 µM (inactive),0.0598 µM (active),2.99 µM (inactive),3.62 µM (inactive),16.2 µM (inactive),12.3 µM (inactive),12.4 µM (inactive),20.9 µM (inactive),3.43 µM (inactive),16.9 µM (inactive),16.7 µM (inactive),2.55 µM (inactive),1.68 µM (inactive),16.1 µM (inactive),8.51 µM (inactive),15.3 µM (inactive),15.3 µM (inactive),13.6 µM (inactive),3.33 µM (inactive)
C=C1CC(Cn2ccc(=O)[nH]c2=O)(c2ccc(OC)cc2)OC1=O (stereo not given),19.3 µM (inactive),10.1 µM (inactive),4.43 µM (inactive),18.8 µM (inactive),28.8 µM (inactive),24 µM (inactive),6.34 µM (inactive),12.2 µM (inactive),1.94 µM (inactive),22.3 µM (inactive),10 µM (inactive),13.2 µM (inactive),4.14 µM (inactive),17.5 µM (inactive),15.8 µM (inactive),15.3 µM (inactive),18.6 µM (inactive),16.8 µM (inactive),3.2 µM (inactive)
NC(=O)CC(N)c1nnn[nH]1 (stereo not given),> 100 µM (inactive),> 100 µM (inactive),> 100 µM (inactive),> 100 µM (inactive),> 100 µM (inactive),> 100 µM (inactive),> 100 µM (inactive),> 100 µM (inactive),> 100 µM (inactive),> 100 µM (inactive),> 100 µM (inactive),> 100 µM (inactive),> 100 µM (inactive),> 100 µM (inactive),> 100 µM (inactive),> 100 µM (inactive),> 100 µM (inactive),> 100 µM (inactive),> 100 µM (inactive)
